Reference: patent US9919002B2, “Methods and constructs for compound delivery” (North Carolina State University, priority 2013, dated 2018)

Tests used:
[1] = test system: MDA-MB-231 tumor xenograft; experiment: In vivo antitumor efficacy of Gelipo formulations; details: i.v. 2 mg/kg Dox every other day for 12 days
Description: All animals were treated in accordance with the Guide for Care and Use of Laboratory Animals, approved by local committee. The female nude mice were subcutaneously inoculated in the back with MDA-MB-231 cells (1×10^7 cells/mouse) for the construction of the tumor xenograft model. The tumor size was monitored by a fine caliper and the tumor volume (V) was calculated as V=L×W^2/2, where L and W were the length and width of the tumor, respectively.
When the tumor volume reached to 50 mm^3, the mice were weighed, randomly divided into 4 groups, and intravenously administrated with the Dox solution (2 mg/kg), Dox-Gelipo (2 mg/kg), Dox/TRAIL-Gelipo (2 mg/kg Dox, 0.04 mg/kg TRAIL) and saline every other day for 12 days. The tumor size and body weight of the mice were measured at the meantime. At Day 14, the tumor were harvested from the mice after euthanasia, washed by saline thrice and then fixed in 10% neutral buffered formalin (NBF). For HE staining, formalin-fixed tumors were embedded in paraffin blocks and visualized by optical microscope (DM5500B, Leica). For TUNEL apoptosis staining, the fixed tumor sections were stained by the In Situ Cell Death Detection Kit (Roche Applied Science) according to the manufacturer's protocol. Hoechst 33342 was used for nuclear nuclear counterstaining. The stained tumor slides were observed by fluorescence microscope (IX71, Olympus).

HAase = experiment: In vitro HAase-mediated TRAIL release and CD spectra; type: physicochemical; details: TRAIL released from Gelipo versus native TRAIL
Description: 500 μL of rhodamine-labeled TRAIL-loaded Gelipo (r-TRAIL-Gelipo) was incubated with 500 μL of HAase (1 mg/mL) at pH 6.5 in a 37° C. water bath. At prearranged time intervals, free r-TRAIL in the filtrate was harvested using centrifugal filters (30K MWCO) (Millipore). The fluorescence intensity of r-TRAIL was determined at 585 nm with an excitation wavelength of 552 nm by a microplate reader (Infinite M200 PRO, Tecan). Additionally, the far-UV CD spectra of the native TRAIL and the released TRAIL from TRAIL Gelipo were obtained using a Circular Dichroism Spectrometer (Aviv).

MDA-MB-231 cells = experiment: Cell apoptosis assay (Annexin V-FITC, TUNEL), Example 2; type: cell-based, human; details: 12 h
Description: Apoptosis of MDA-MB-231 cells was detected using the Annexin V-FITC Apoptosis Detection Kit (BD Biosciences) and APO-BrdU TUNEL Assay Kit (Life Technologies), respectively. The cells (1×10^5 cells/well) were seeded in 6-well plates and cultured for 48 h. For Annexin V-FITC assay, the cells were incubated with different formulations for 12 h, including free TRAIL (2 or 20 ng/mL), TRAIL-Gelipo (20 ng/mL) with or without HAase-treatment, Dox-R8H3-L (100 ng/mL), TRAIL/Dox-Gelipo (2 ng/mL TRAIL, 100 ng/mL Dox) with HAase-treatment. For TUNEL assay, the cells were incubated with free TRAIL (2 ng/mL), Dox-R8H3-L (100 ng/mL) and TRAIL/Dox-Gelipo (2 ng/mL TRAIL, 100 ng/mL Dox) with HAase-treatment for 20 h, respectively. The following procedures were performed in accordance with the manufacturers' protocols. Finally, for Annexin V-FITC assay, the cells were analyzed by flow cytometry (BD FACSCalibur), while for TUNEL assay, the cells were observed by fluorescence microscope (IX71, Olympus).

[2] = 20 ng/mL TRAIL, Annexin V-FITC/PI

`COc1cccc2c1C(=O)c1c(O)c3c(c(O)c1C2=O)C[C@@](O)(C(=O)CO)C[C@@H]3O[C@H]1C[C@H](N)[C@H](O)[C@H](C)O1` [Dox solution, doxorubicin] was tested, and the “Tumor growth compared with saline” value [1] was “remarkably suppressed”.

With “free TRAIL: His-ILZ-TRAIL (residues 114-281) produced in E. coli; TNF-related apoptosis-inducing ligand” the “Secondary structure of released TRAIL (CD spectrum)” value (HAase) was “no noticeable conformational changes in the secondary structure”, the Apoptosis ratio (MDA-MB-231 cells; 2 ng/mL TRAIL) was 36.48% and the Apoptosis ratio (MDA-MB-231 cells; [2]) was 51.71%. It also gave a Viability (MDA-MB-231 cells; [2]) of 32.30%.
